Laboratory results published in US20150065709A1, “Aminoquinazoline Derivative And Use Thereof In Preparing Anti-Malignant Tumor Medicament” (METABOMICS, INC, priority 2012, published 2015).

Legend:
EGFR^T790M = EGFR^T790M (Homo sapiens, UniProt P00533, T790M); experiment: Caliper Mobility Shift Assay, mutant EGFR kinase; type: biochemical; conditions: read-out: Inhibition of Kinase Activity (IC50, nM) EGFR^T790M
A431 = experiment: Inhibition of tumor cells, MTS method; type: cell-based; conditions: Homo sapiens, A-431, 72 hours
Experimental: (§1) (1) Compounds: in vitro studies the test compounds was dissolved in 100% DMSO and diluted until the final concentration of DMSO was 0.1%. The 0.1% (v/v) DMSO was added into culture medium as solvent control. 9 concentration gradients were tested and each gradient was repeated twice. (2) Tumor cell lines: the tumor cell lines were cultivated in RPMI10 culture medium containing 10% fetal calf serum in incubator at 37° C. in a 5% CO2 air incubator. The tested tumor cell lines were: BT474, MDA-MB-231, SK-Br-3, A431, H292, H1975, HCC827, A549, H1650 and H1734. (3) MTS method: cells were seeded into 96-well plate to give a density of about 3000 cells per well, and incubated overnight in a humidified incubator at 37° C. In the next day, the test compounds were added to the wells and further incubated for 72 hours. The cell activity was detected using MTS. IC50 was calculated (the concentration of a compound that is required for 50% inhibition of the cell growth versus the DMSO control group, using nonlinear regression analysis of software GraphPad Prism). […] In a 96-well plate, each test compound was tested at 9 dosage concentrations and each dosage was made in triplicate. Samples were added in 100 μL/well. Cell control and negative control wells contained diluents instead of compounds. Except the negative control well, 100 μL cell suspension of complete medium was added into each test well, wherein corresponding cell numbers were included to assure that the cells in cell control well just cover the bottom of the well as the required incubation time was reached. The plate was incubated in a CO2 incubator at 37° C. for 48 hours. The liquid in test wells was removed by pipetting. 100 μL CCK-8 (Cell counting Kit-8, purchased from DOJINDO Molecular Technologies) detection liquid (containing 10% CCK-8, 5% FBS corresponding medium) was added into each test well, then the plate was incubated in a CO2 incubator under at 37° C. for 3 hours. OD value was detected by ELIASA at A450 nm. Cell viability percentage (%)=(O.D. test compound-O.D. blank)/(O.D. control-O.D. blank)×100. Mean value was calculated for each 3 repeated wells, and IC50 was calculated using nonlinear regression (fitted curve) data analysis method.

A549 = experiment: Inhibition of tumor cells, MTS method; type: cell-based; conditions: Homo sapiens, 72 hours
Experimental: as §1

BT474 = experiment: Inhibition of tumor cells, MTS method; type: cell-based; conditions: Homo sapiens, BT-474, 72 hours
Experimental: as §1

H1650 = experiment: Inhibition of tumor cells, MTS method; type: cell-based; conditions: Homo sapiens, NCI-H1650, 72 hours
Experimental: as §1

H1734 = experiment: Inhibition of tumor cells, MTS method; type: cell-based; conditions: Homo sapiens, NCI-H1734, 72 hours
Experimental: as §1

H1975 = experiment: Inhibition of tumor cells, MTS method; type: cell-based; conditions: Homo sapiens, NCI-H1975, 72 hours
Experimental: as §1

H292 = experiment: Inhibition of tumor cells, MTS method; type: cell-based; conditions: Homo sapiens, NCI-H292, 72 hours
Experimental: as §1

HCC827 = experiment: Inhibition of tumor cells, MTS method; type: cell-based; conditions: Homo sapiens, 72 hours
Experimental: as §1

SK-Br-3 = experiment: Inhibition of tumor cells, MTS method; type: cell-based; conditions: Homo sapiens, 72 hours
Experimental: as §1

N87(gastric cancer) = experiment: Transplanted tumor in nude mice, N87 model; type: in vivo, nude mice (BALB/c)
Source text: Furthermore, more pharmacological models of tumor cell lines in nude mice were utilized to validate the inhibitory effects of compound Ie. The test method was specifically described as follows: H1975, A549, HCC827, A431, N87, MDA-MD-468 and CAL27 tumor cells respectively were inoculated into nude mice (BALB/c, male, 5-6 weeks of age), and when the mean tumor volume reaches 150 mm^3 mice was randomized into groups. The H1975 tumor model in nude mice includes one positive control group and three dosage groups of compound Ie (6.7 mg/kg/day, 13.4 mg/kg/day, and 20.1 mg/kg/day. The A549 tumor model in nude mice includes one positive control group, two dosage groups of compound Ie (10 mg/kg/day, 20 mg/kg/day), and one dosage group of Docetaxel (12 mg/kg/day). The HCC827 tumor model in nude mice includes one positive control group, two dosage groups of compound Ie (0.5 mg/kg/day, 2.5 mg/kg/day), and one dosage group of Erlotinib (12.5 mg/kg/day). The A431 tumor model in nude mice includes one positive control group, two dosage groups of compound Ie (2.5 mg/kg/day, 5 mg/kg/day), and one dosage group of Erlotinib (50 mg/kg/day). […] The tumor size and body weight of nude mice were recorded twice weekly from the first day of administration. The tumor volume was calculated using formula (1×w^2), wherein 1 and w respectively represents the maximum and minimum size in each measurement. […]

[1] = Long-term toxicity experiment (28 days) in rats; type: in vivo; conditions: for toxicity reaction: po
Experimental: Experiment Animals: rats, male, 6-8 weeks of age, body weight: 180-250 g; dogs, male, about 24 months, body weight: 7-10 kg.
Preparation of sample: in rat's experiments the mixed formulation powder of the compound Ie was formulated into 0.1, 0.3 and 1 mg/mL homogeneous suspension for use; administration route: oral administration; […]. In dog's experiments the tablets of compound Ie were fed to dogs. […].
Sample collection: blood was collected at the time points of 1, 10, 20 and 28 days respectively, about 120-200 μL whole blood was collected from 3 animals at each time point. Blood was collected at 1 h, 4 h, 8 h and 24 h after administration.
Sample analysis: the collected samples were detected by LC-MS/MS, and the instrument model was SHIMADZU20 A-API4000.
Pharmacokinetic data analysis: the obtained plasma concentration data were fitted and calculated using WinNolin according to non-compartment model.

Chain of EGFR^T790M (P00533 25-1210 T790M): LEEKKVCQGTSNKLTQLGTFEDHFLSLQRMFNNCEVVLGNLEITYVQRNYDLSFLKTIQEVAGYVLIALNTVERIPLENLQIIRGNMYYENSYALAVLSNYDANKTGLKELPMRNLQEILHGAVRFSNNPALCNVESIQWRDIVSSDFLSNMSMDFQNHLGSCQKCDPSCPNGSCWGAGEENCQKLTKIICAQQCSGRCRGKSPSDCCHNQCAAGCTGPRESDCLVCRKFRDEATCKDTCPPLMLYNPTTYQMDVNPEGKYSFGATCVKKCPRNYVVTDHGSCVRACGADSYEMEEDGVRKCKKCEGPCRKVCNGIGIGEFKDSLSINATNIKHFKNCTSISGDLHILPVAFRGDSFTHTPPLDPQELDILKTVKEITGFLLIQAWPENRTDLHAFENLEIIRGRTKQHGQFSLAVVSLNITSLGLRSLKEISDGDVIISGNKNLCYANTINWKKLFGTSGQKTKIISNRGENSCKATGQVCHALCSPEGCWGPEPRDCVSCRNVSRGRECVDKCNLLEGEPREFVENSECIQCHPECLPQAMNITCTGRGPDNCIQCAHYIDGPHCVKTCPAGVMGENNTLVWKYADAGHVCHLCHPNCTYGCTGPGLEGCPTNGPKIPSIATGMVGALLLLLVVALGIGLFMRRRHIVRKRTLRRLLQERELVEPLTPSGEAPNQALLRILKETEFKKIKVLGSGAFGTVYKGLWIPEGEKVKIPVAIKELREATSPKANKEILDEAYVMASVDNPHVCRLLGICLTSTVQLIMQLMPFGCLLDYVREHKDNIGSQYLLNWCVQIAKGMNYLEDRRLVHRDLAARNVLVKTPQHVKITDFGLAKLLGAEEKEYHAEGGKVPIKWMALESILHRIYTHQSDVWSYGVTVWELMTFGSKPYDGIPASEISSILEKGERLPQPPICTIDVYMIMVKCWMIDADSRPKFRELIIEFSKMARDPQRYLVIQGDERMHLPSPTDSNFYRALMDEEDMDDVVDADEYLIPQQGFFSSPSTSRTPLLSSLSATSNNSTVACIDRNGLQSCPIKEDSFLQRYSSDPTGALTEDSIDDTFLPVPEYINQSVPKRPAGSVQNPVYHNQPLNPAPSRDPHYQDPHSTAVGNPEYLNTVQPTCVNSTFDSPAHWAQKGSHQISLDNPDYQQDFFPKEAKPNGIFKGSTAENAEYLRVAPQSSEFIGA

Work on `CN(C)C/C=C/C(=O)Nc1cc2c(Nc3ccc(F)c(Cl)c3)ncnc2cc1OC(F)F` [Compound Ie] yielded an IC50 (EGFR^T790M) of 4.6 nM, an IC50 (A431) of 0.652 µM and an IC50 (A549) of 3.72 µM. For the same molecule, the IC50 (BT474) was 0.034 µM, the IC50 (H1650) was 3.24 µM and the IC50 (H1734) was 0.539 µM. The IC50 (H1975) was 0.8 µM, the IC50 (H292) was 2.65 µM and the IC50 (HCC827) was 0.002 µM. For the same molecule, the IC50 (SK-Br-3) was 0.23 µM, the “inhibitory and therapeutic effects on N87 tumor model” value (N87(gastric cancer); 5, 10 mg/kg/day orally for 21 days) was “strong inhibitory effects and therapeutic effects” and the “inhibitory effects on tumor cell growth compared with other drugs, N87 model” value (N87(gastric cancer); versus Lapatinib (90 mg/kg/day, twice daily)) was “stronger inhibitory effects”. The “reversibility of toxicity reaction after drug withdrawal” value ([1]; rat, in vivo) was “reversible”, the toxicity reaction ([1]; rat, in vivo, 1 mg/kg) was “no toxicity reaction” and the toxicity reaction ([1]; rat, in vivo, 3 mg/kg) was “no toxicity reaction”. For the same molecule, the “AUC relative to Afatinib in the same dosage” value ([1]; rats, oral, 28 days) was “about 5 times”, the “time after drug withdrawal until weight close to control group” value ([1]; rats, 1, 3 and 10 mg/kg groups) was 5 to 6 days and the “weight recovery after drug withdrawal” value ([1]; rats, compound Ie 1, 3 and 10 mg/kg groups) was “regain weight very quickly”.
